Measurements reported in ChEMBL document CHEMBL1146571, “Mycalosides B-I, eight new spermostatic steroid oligoglycosides from the sponge Mycale laxissima” (J Nat Prod, 2003).
In brackets after ≈: the same amount, converted by molar mass.

Experiment: Spermatostatic activity against Strongylocentrotus nudus sperm assessed as inhibition of egg fertilization preincubated 15 mins before artificial insemination
Type: functional, cell-based, Mesocentrotus nudus

SMILES | EC50 [µg/mL]
CC(C)CCC[C@@H](CO)[C@H]1CC(=O)[C@H]2[C@@H]3CC=C4[C@@H](O)[C@@H](O[C@@H]5O[C@H](CO)[C@@H](O[C@@H]6O[C@H](CO)[C@H](O)[C@H](O)[C@H]6O)[C@H](O[C@@H]6OC[C@@H](O)[C@@H](O)[C@@H]6O[C@H]6O[C@H](CO)[C@H](O)[C@H](O)[C@H]6O)[C@H]5O)CC[C@]4(C)[C@H]3CC[C@]12C [MYCALOSIDE G] | 3.2 (≈ 3.04 µM)
CC(C)[C@H](C)/C=C/[C@@H](CO)[C@H]1C[C@H](O)[C@H]2[C@@H]3CC=C4[C@@H](O)[C@@H](O[C@@H]5O[C@H](CO)[C@@H](O[C@@H]6O[C@H](CO)[C@H](O)[C@H](O)[C@H]6O)[C@H](O[C@@H]6OC[C@@H](O)[C@@H](O)[C@@H]6O[C@H]6O[C@H](CO)[C@H](O)[C@H](O)[C@H]6O)[C@H]5O)CC[C@]4(C)[C@H]3CC[C@@]21C [MYCALOSIDE A] | 3.2 (≈ 3 µM)
